Data from the NIST ThermoML archive (doi:10.1016/j.jct.2012.02.017).

Key:
[1] = xn = mol fraction of the nth substance listed; details: Ring tensiometer
[2] = Ring tensiometer

[2H]O[2H] [water-d2] + CO
surface tension liquid-gas [mN/m], [1]
Details | 288.15 K | 298.15 K | 308.15 K | 318.15 K
x2 = 0.0045 | 71.03 | 69.55 | 68.1 | 66.54
x2 = 0.0154 | 66.2 | 65.13 | 64.17 | 62.8
x2 = 0.0304 | 61.24 | 60.45 | 59.67 | 58.88
x2 = 0.0509 | 56.43 | 55.33 | 54.09 | 52.97
x2 = 0.0707 | 52.83 | 52.04 | 51.25 | 50.48
x2 = 0.0896 | 50.23 | 49.45 | 48.65 | 47.92
x2 = 0.1252 | 45.79 | 45.01 | 44.56 | 42.8
x2 = 0.1737 | 42.45 | 41.8 | 40.26 | 39.66
x2 = 0.2171 | 38.51 | 38.07 | 37.7 | 36.61
x2 = 0.2684 | 36.01 | 35.49 | 35.1 | 34.16
x2 = 0.3133 | 34.68 | 34.05 | 33.49 | 32.65
x2 = 0.353 | 33.4 | 32.79 | 32.05 | 31.79
x2 = 0.4271 | 31.83 | 30.79 | 30.29 | 29.42
x2 = 0.5279 | 29.14 | 29.01 | 28.68 | 27.75
x2 = 0.691 | 26.15 | 25.65 | 25.06 | 24.38
x2 = 0.8173 | 23.49 | 22.96 | 22.48 | 21.75

[2H]O[2H] [water-d2] + CCO
surface tension liquid-gas [mN/m], [1]
Details | 288.15 K | 298.15 K | 308.15 K | 318.15 K
x2 = 0.0008 | 72.5 | 70.96 | 69.43 | 67.73
x2 = 0.0016 | 71.29 | 69.78 | 68.35 | 66.43
x2 = 0.0023 | 70.28 | 68.67 | 67.12 | 65.55
x2 = 0.0039 | 68.68 | 66.88 | 65.22 | 63.52
x2 = 0.007 | 65.31 | 63.61 | 61.92 | 60.23
x2 = 0.0116 | 62.13 | 59.42 | 58.1 | 56.98
x2 = 0.0191 | 57.62 | 53.65 | 52.63 | 51.86
x2 = 0.0295 | 52.54 | 50.9 | 48.05 | 47.3
x2 = 0.044 | 47.97 | 46.07 | 44.17 | 42.27
x2 = 0.0716 | 41.94 | 38.62 | 36.3 | 33.32
x2 = 0.1103 | 36.22 | 34.15 | 33.1 | 31.3
x2 = 0.157 | 32 | 30.33 | 29.1 | 27.58
x2 = 0.1991 | 30.52 | 29.16 | 28.14 | 27.03
x2 = 0.2462 | 29.15 | 28.17 | 27.39 | 26.56
x2 = 0.345 | 27.29 | 25.99 | 25.03 | 24.63
x2 = 0.4209 | 26.21 | 25.23 | 23.67 | 22.85
x2 = 0.4811 | 25.3 | 24.59 | 23.56 | 22.7
x2 = 0.5703 | 24.34 | 23.44 | 23.02 | 22.3
x2 = 0.6752 | 23.36 | 22.45 | 21.97 | 21.57
x2 = 0.7572 | 22.98 | 21.59 | 20.92 | 20.9
x2 = 0.8618 | 22.37 | 21.48 | 20.41 | 20.11

[2H]O[2H] [water-d2] + CCCO
surface tension liquid-gas [mN/m], [1]
Details | 288.15 K | 298.15 K | 308.15 K | 318.15 K
x2 = 0.0007 | 70.61 | 68.81 | 67.5 | 66.16
x2 = 0.002 | 66.37 | 63.94 | 62.32 | 61.9
x2 = 0.0033 | 62.9 | 58.5 | 56.44 | 54.18
x2 = 0.0047 | 60.07 | 55.76 | 53.57 | 50.4
x2 = 0.006 | 57.59 | 54.16 | 52.75 | 48.26
x2 = 0.0099 | 52.32 | 48.49 | 46.75 | 45.22
x2 = 0.0165 | 45.84 | 43.67 | 40.52 | 39.54
x2 = 0.0255 | 41.34 | 39.38 | 38.39 | 37.11
x2 = 0.038 | 36.34 | 34.78 | 33.31 | 32.45
x2 = 0.0622 | 29 | 28.09 | 27.45 | 27.03
x2 = 0.138 | 25.81 | 24.9 | 24.75 | 23.58
x2 = 0.1851 | 25.78 | 25.09 | 24.19 | 23.62
x2 = 0.2272 | 25.17 | 24.99 | 24.38 | 23.37
x2 = 0.351 | 24.57 | 23.79 | 23.5 | 22.88
x2 = 0.4933 | 24.2 | 23.58 | 22.8 | 22.12
x2 = 0.6187 | 23.84 | 22.94 | 22.54 | 21.8
x2 = 0.8296 | 23.48 | 22.64 | 22.46 | 21.64

CO [methanol]
[2]
Details | surface tension liquid-gas [mN/m]
288.15 K | 22.37
298.15 K | 21.64
308.15 K | 20.94
318.15 K | 19.93

[2H]O[2H] [water-d2]
[2]
Details | surface tension liquid-gas [mN/m]
288.15 K | 73.59
298.15 K | 71.87
308.15 K | 70.21
318.15 K | 68.84

CCCO [propan-1-ol]
[2]
Details | surface tension liquid-gas [mN/m]
288.15 K | 23.34
298.15 K | 22.54
308.15 K | 21.62
318.15 K | 20.99

CCO [ethanol]
[2]
Details | surface tension liquid-gas [mN/m]
288.15 K | 22.08
298.15 K | 21.19
308.15 K | 20.35
318.15 K | 20.18
